# According to article PMC6522912, “Evaluation of the published kinase inhibitor set to identify multiple inhibitors of bacterial ATP-dependent mur ligases” (Journal of Enzyme Inhibition and Medicinal Chemistry, 2019):
# Biological target: E. coli MurF (Escherichia coli, UniProt P11880)
# Experiment: biochemical
# Conditions: 0.25 h, Table S1, PKIS screening; read-out: RA [%] at 100 µM MurF
# Sequence of E. coli MurF (P11880 whole entry): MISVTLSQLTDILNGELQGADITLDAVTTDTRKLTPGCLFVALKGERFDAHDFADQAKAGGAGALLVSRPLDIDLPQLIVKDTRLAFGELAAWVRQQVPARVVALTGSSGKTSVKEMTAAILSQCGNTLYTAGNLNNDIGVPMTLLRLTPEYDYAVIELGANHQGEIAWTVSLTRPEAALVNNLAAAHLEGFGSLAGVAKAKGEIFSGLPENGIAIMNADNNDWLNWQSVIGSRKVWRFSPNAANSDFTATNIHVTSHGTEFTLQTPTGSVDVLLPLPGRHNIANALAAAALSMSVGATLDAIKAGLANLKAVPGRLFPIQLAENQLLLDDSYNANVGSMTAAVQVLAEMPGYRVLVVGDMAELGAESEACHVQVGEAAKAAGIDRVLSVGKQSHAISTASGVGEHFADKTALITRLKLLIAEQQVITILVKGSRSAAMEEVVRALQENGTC
row,SMILES,remaining activity at 100 µM
1,C/C(Nc1ccc(S(N)(=O)=O)cc1)=C1/C(=O)Nc2ccccc21 [GW335962X],88%
2,CCS(=O)(=O)c1ccc(OC)c(Nc2ncc(-c3cccc(OC)c3)o2)c1 [GW580509X],93%
3,O=C1NC(=O)C(c2cccc(Cl)c2)=C1Nc1ccc(Cl)c(C(=O)O)c1 [SB-409513],78%
4,CC1=C(C(=O)Nc2cc(Cl)c3[nH]ncc3c2)C(c2ccc(C(F)(F)F)cc2)CC(=O)N1 (stereo not drawn) [GSK466317A],71%
5,COc1ccc2[nH]c3c4[nH]c5ccc(OC)cc5c4c4c(c3c2c1)C(=O)NC4=O [GW296115X],100%
6,Cc1cc(O)cc(C)c1/C=C/c1cncc(C(=O)OC(C)(C)C)c1 [GW439255X],69%
7,CN1CCC(n2cnc(-c3ccc(F)cc3)c2-c2ccnc(Nc3ccccc3)n2)CC1 [SB-236687],67%
8,CN1CCC(n2cnc(-c3ccc(F)cc3)c2-c2ccnc(NCCO)n2)CC1 [SB-226879],68%
9,NC(=O)c1sc(-n2cnc3ccc(C(F)(F)F)cc32)cc1OCc1ccccc1Br [GW853606X],75%
10,O=C(Nc1n[nH]c2nc(-c3ccc(O)cc3)c(Br)cc12)C1CC1 [SB-725317],89%
11,CCn1c(-c2nonc2N)nc2c(C#CCN)ncc(OCCCN)c21 [GSK561866B],66%
12,Cc1nnc(-c2cccc(-c3ccc(C(=O)NCC4CC4)cc3)c2)o1 [GW734508X],74%
13,COc1cccc(COc2cc(-n3cnc4ccccc43)sc2C(N)=O)c1 [GW804482X],82%
14,Cc1ccc(Nc2ccnc(Nc3cccc(C(N)=O)c3)n2)cc1O [GW575808A],100%
15,Nc1nccc(-c2c(-c3ccc(F)cc3)nn3cc(C(F)(F)F)ccc23)n1 [GW568326X],78%
16,CN1CCN(C(=O)c2ccc(NC(=O)Nc3ccc(N(C)c4ccnc(Nc5ccc(CS(C)(=O)=O)cc5)n4)cc3)cc2)CC1 [GW830263A],73%
17,COC(=O)Nc1nc2ccc(Oc3ccc(NC(=O)Nc4cccc(Cl)c4)cc3)cc2[nH]1 [GW589961A],83%

# Same assay, conditions: Table S3, aza stilbene compounds
row,SMILES,RA (%) MurF
1,Cc1cc(O)cc(C)c1C=Cc1cncc(C(=O)OC(C)(C)C)c1 [Compound 16],69%
2,Cc1cc(O)cc(C)c1C=Cc1cncc(-c2nn[nH]n2)c1 [Compound 7],90%

# Biological target: E. coli MurD (Escherichia coli, UniProt P14900)
# Sequence (P14900 whole entry): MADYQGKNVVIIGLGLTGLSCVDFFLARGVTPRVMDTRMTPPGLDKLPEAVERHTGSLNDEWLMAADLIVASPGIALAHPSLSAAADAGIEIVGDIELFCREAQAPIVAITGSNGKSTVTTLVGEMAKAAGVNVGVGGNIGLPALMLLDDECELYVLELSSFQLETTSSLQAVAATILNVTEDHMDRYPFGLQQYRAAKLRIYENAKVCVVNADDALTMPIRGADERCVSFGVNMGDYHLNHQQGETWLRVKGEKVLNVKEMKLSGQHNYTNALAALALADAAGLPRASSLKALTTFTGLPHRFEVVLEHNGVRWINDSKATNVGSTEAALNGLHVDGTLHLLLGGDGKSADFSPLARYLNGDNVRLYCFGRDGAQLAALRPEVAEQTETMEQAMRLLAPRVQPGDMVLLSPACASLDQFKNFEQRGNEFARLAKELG
# Experiment: biochemical
# Conditions: not given
# Outline: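 Reaction 15 min at 37 °C, then phosphate detected with Biomol green at 650 nm. Values are residual activity versus 5% DMSO carrier controls.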
row,SMILES,RA (%) MurD
1,Cc1cc(O)cc(C)c1C=Cc1cncc(C(=O)OC(C)(C)C)c1 [Compound 16],96%
2,Cc1cc(O)cc(C)c1C=Cc1cncc(-c2nn[nH]n2)c1 [Compound 7],91%

# Same assay, conditions: 0.25 h, Table S1, PKIS screening; read-out: RA [%] at 100 µM MurD
row,SMILES,remaining activity at 100 µM
1,C/C(Nc1ccc(S(N)(=O)=O)cc1)=C1/C(=O)Nc2ccccc21 [GW335962X],76%
2,CCS(=O)(=O)c1ccc(OC)c(Nc2ncc(-c3cccc(OC)c3)o2)c1 [GW580509X],82%
3,O=C1NC(=O)C(c2cccc(Cl)c2)=C1Nc1ccc(Cl)c(C(=O)O)c1 [SB-409513],88%
4,CC1=C(C(=O)Nc2cc(Cl)c3[nH]ncc3c2)C(c2ccc(C(F)(F)F)cc2)CC(=O)N1 (stereo not drawn) [GSK466317A],99%
5,COc1ccc2[nH]c3c4[nH]c5ccc(OC)cc5c4c4c(c3c2c1)C(=O)NC4=O [GW296115X],87%
6,Cc1cc(O)cc(C)c1/C=C/c1cncc(C(=O)OC(C)(C)C)c1 [GW439255X],96%
7,CN1CCC(n2cnc(-c3ccc(F)cc3)c2-c2ccnc(Nc3ccccc3)n2)CC1 [SB-236687],90%
8,CN1CCC(n2cnc(-c3ccc(F)cc3)c2-c2ccnc(NCCO)n2)CC1 [SB-226879],98%
9,NC(=O)c1sc(-n2cnc3ccc(C(F)(F)F)cc32)cc1OCc1ccccc1Br [GW853606X],86%
10,O=C(Nc1n[nH]c2nc(-c3ccc(O)cc3)c(Br)cc12)C1CC1 [SB-725317],96%
11,CCn1c(-c2nonc2N)nc2c(C#CCN)ncc(OCCCN)c21 [GSK561866B],82%
12,Cc1nnc(-c2cccc(-c3ccc(C(=O)NCC4CC4)cc3)c2)o1 [GW734508X],100%
13,COc1cccc(COc2cc(-n3cnc4ccccc43)sc2C(N)=O)c1 [GW804482X],79%
14,Cc1ccc(Nc2ccnc(Nc3cccc(C(N)=O)c3)n2)cc1O [GW575808A],89%
15,Nc1nccc(-c2c(-c3ccc(F)cc3)nn3cc(C(F)(F)F)ccc23)n1 [GW568326X],90%
16,CN1CCN(C(=O)c2ccc(NC(=O)Nc3ccc(N(C)c4ccnc(Nc5ccc(CS(C)(=O)=O)cc5)n4)cc3)cc2)CC1 [GW830263A],69%
17,COC(=O)Nc1nc2ccc(Oc3ccc(NC(=O)Nc4cccc(Cl)c4)cc3)cc2[nH]1 [GW589961A],81%

# Biological target: E. coli MurC (Escherichia coli, UniProt P17952)
# Sequence (P17952 whole entry): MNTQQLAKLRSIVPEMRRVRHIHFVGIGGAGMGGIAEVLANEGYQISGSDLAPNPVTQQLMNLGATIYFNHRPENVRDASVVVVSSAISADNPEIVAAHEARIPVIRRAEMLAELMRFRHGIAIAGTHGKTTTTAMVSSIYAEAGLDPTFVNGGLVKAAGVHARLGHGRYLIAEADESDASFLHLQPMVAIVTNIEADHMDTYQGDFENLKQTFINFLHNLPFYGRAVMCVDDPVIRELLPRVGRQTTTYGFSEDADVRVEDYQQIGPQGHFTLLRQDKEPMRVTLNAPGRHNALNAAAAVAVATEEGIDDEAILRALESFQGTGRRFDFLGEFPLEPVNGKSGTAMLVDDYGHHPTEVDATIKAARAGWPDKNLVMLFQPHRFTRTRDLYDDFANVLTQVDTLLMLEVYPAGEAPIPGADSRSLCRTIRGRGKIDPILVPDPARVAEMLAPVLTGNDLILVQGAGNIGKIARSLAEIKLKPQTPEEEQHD
# Experiment: Malachite green inhibition assay, MurC
# Format: biochemical
# Conditions: 0.25 h, Table S1, PKIS screening; read-out: RA [%] at 100 µM MurC
row,SMILES,remaining activity at 100 µM
1,C/C(Nc1ccc(S(N)(=O)=O)cc1)=C1/C(=O)Nc2ccccc21 [GW335962X],72%
2,CCS(=O)(=O)c1ccc(OC)c(Nc2ncc(-c3cccc(OC)c3)o2)c1 [GW580509X],100%
3,O=C1NC(=O)C(c2cccc(Cl)c2)=C1Nc1ccc(Cl)c(C(=O)O)c1 [SB-409513],94%
4,CC1=C(C(=O)Nc2cc(Cl)c3[nH]ncc3c2)C(c2ccc(C(F)(F)F)cc2)CC(=O)N1 (stereo not drawn) [GSK466317A],80%
5,COc1ccc2[nH]c3c4[nH]c5ccc(OC)cc5c4c4c(c3c2c1)C(=O)NC4=O [GW296115X],100%
6,Cc1cc(O)cc(C)c1/C=C/c1cncc(C(=O)OC(C)(C)C)c1 [GW439255X],75%
7,CN1CCC(n2cnc(-c3ccc(F)cc3)c2-c2ccnc(Nc3ccccc3)n2)CC1 [SB-236687],79%
8,NC(=O)c1sc(-n2cnc3ccc(C(F)(F)F)cc32)cc1OCc1ccccc1Br [GW853606X],64%
9,O=C(Nc1n[nH]c2nc(-c3ccc(O)cc3)c(Br)cc12)C1CC1 [SB-725317],84%
10,CCn1c(-c2nonc2N)nc2c(C#CCN)ncc(OCCCN)c21 [GSK561866B],52%
11,Cc1nnc(-c2cccc(-c3ccc(C(=O)NCC4CC4)cc3)c2)o1 [GW734508X],89%
12,COc1cccc(COc2cc(-n3cnc4ccccc43)sc2C(N)=O)c1 [GW804482X],100%
13,Cc1ccc(Nc2ccnc(Nc3cccc(C(N)=O)c3)n2)cc1O [GW575808A],100%
14,Nc1nccc(-c2c(-c3ccc(F)cc3)nn3cc(C(F)(F)F)ccc23)n1 [GW568326X],68%
15,CN1CCN(C(=O)c2ccc(NC(=O)Nc3ccc(N(C)c4ccnc(Nc5ccc(CS(C)(=O)=O)cc5)n4)cc3)cc2)CC1 [GW830263A],51%
16,COC(=O)Nc1nc2ccc(Oc3ccc(NC(=O)Nc4cccc(Cl)c4)cc3)cc2[nH]1 [GW589961A],77%

# Same assay, conditions: 0.25 h, read-out: RA [%] at 100 µM MurC, Table S1, PKIS screening
row,SMILES,remaining activity at 100 µM
1,CN1CCC(n2cnc(-c3ccc(F)cc3)c2-c2ccnc(NCCO)n2)CC1 [SB-226879],65%

# Same assay, conditions: Table S3, aza stilbene compounds
row,SMILES,RA (%) MurC
1,Cc1cc(O)cc(C)c1C=Cc1cncc(C(=O)OC(C)(C)C)c1 [Compound 16],75%
2,Cc1cc(O)cc(C)c1C=Cc1cncc(-c2nn[nH]n2)c1 [Compound 7],70%
